Measurements: article PMC9067983, “Identification of highly selective type II kinase inhibitors with chiral peptidomimetic tails” (Journal of Enzyme Inhibition and Medicinal Chemistry, 2022)
Where a SMILES comes first, the peptide text is derived from it. [ ]: non-standard residue; d: D form. The star is where a group is joined. X1 = Cc1ccc(Nc2ncc3c(n2)N(C)C(=O)N(c2cc(C(=O)*)ccc2C)C3)cn1; Aib = CC(C)(N)C(=O)O

How the values were obtained:
Test in all cases: kinase selectivity profiling
Type in all cases: biochemical
Details in all cases: 10µM ATP, read-out: % inhibition (relative to DMSO)
[1] = biological target: T1, BMPR2 (Homo sapiens, UniProt Q13873)
T1 construct: purchased Reaction Biology Corp
Protocol: (§1) Full panel kinase profiling and kinase IC50 measurement were performed by using Reaction Biology Corp. (San Diego, USA).

[2] = biological target: T2, JAK2 (Homo sapiens, UniProt O60674)
T2 construct: purchased Reaction Biology Corp
Protocol: as §1

[3] = biological target: T3, YSK4/MAP3K19 (Homo sapiens, UniProt Q56UN5)
T3 construct: purchased Reaction Biology Corp
Protocol: as §1

[4] = biological target: T4, DCAMKL1 (Homo sapiens, UniProt O15075)
T4 construct: purchased Reaction Biology Corp
Protocol: as §1

[5] = biological target: T5, IRAK4 (Homo sapiens, UniProt Q9NWZ3)
T5 construct: purchased Reaction Biology Corp
Protocol: as §1

[6] = biological target: T6, WEE1 (Homo sapiens, UniProt P30291)
T6 construct: purchased Reaction Biology Corp
Protocol: as §1

[7] = biological target: T7, MLK4 (Homo sapiens, UniProt Q5TCX8)
T7 construct: purchased Reaction Biology Corp
Protocol: as §1

[8] = biological target: T8, LCK2/ICK (Homo sapiens, UniProt Q9UPZ9)
T8 construct: purchased Reaction Biology Corp
Protocol: as §1

[9] = biological target: T9, MEK1 (Homo sapiens, UniProt Q02750)
T9 construct: purchased Reaction Biology Corp
Protocol: as §1

[10] = biological target: T10, CLK2 (Homo sapiens, UniProt P49760)
T10 construct: purchased Reaction Biology Corp
Protocol: as §1

[11] = biological target: T11, ERBB4/HER4 (Homo sapiens, UniProt Q15303)
T11 construct: purchased Reaction Biology Corp
Protocol: as §1

[12] = biological target: T12, HPK1/MAP4K1 (Homo sapiens, UniProt Q92918)
T12 construct: purchased Reaction Biology Corp
Protocol: as §1

[13] = biological target: T13, FYN (Homo sapiens, UniProt P06241)
T13 construct: purchased Reaction Biology Corp
Protocol: as §1

[14] = biological target: T14, JNK1 (Homo sapiens, UniProt P45983)
T14 construct: purchased Reaction Biology Corp
Protocol: as §1

[15] = biological target: T15, P38d/MAPK13 (Homo sapiens, UniProt O15264)
T15 construct: purchased Reaction Biology Corp
Protocol: as §1

[16] = biological target: T16, MKK7 (Homo sapiens, UniProt O14733)
T16 construct: purchased Reaction Biology Corp
Protocol: as §1

[17] = biological target: T17, ALK2/ACVR1 (Homo sapiens, UniProt Q04771)
T17 construct: purchased Reaction Biology Corp
Protocol: as §1

[18] = biological target: T18, TYRO3/SKY (Homo sapiens, UniProt Q06418)
T18 construct: purchased Reaction Biology Corp
Protocol: as §1

[19] = biological target: T19, CDK3/cyclin E2 (Homo sapiens, UniProt Q00526)
T19 construct: purchased Reaction Biology Corp
Protocol: as §1

[20] = biological target: T20, TAK1 (Homo sapiens, UniProt O43318)
T20 construct: purchased Reaction Biology Corp
Protocol: as §1

[21] = biological target: T21, SSTK/TSSK6 (Homo sapiens, UniProt Q9BXA6)
T21 construct: purchased Reaction Biology Corp
Protocol: as §1

[22] = biological target: T22, TTBK2 (Homo sapiens, UniProt Q6IQ55)
T22 construct: purchased Reaction Biology Corp
Protocol: as §1

[23] = biological target: T23, SRPK1 (Homo sapiens, UniProt Q96SB4)
T23 construct: purchased Reaction Biology Corp
Protocol: as §1

[24] = biological target: T24, GRK5 (Homo sapiens, UniProt P34947)
T24 construct: purchased Reaction Biology Corp
Protocol: as §1

[25] = biological target: T25, HGK/MAP4K4 (Homo sapiens, UniProt O95819)
T25 construct: purchased Reaction Biology Corp
Protocol: as §1

[26] = biological target: T26, SIK2 (Homo sapiens, UniProt Q9H0K1)
T26 construct: purchased Reaction Biology Corp
Protocol: as §1

[27] = biological target: T27, Haspin (Homo sapiens, UniProt Q8TF76)
T27 construct: purchased Reaction Biology Corp
Protocol: as §1

[28] = biological target: T28, TLK1 (Homo sapiens, UniProt Q9UKI8)
T28 construct: purchased Reaction Biology Corp
Protocol: as §1

[29] = biological target: T29, EPHB2 (Homo sapiens, UniProt P29323)
T29 construct: purchased Reaction Biology Corp
Protocol: as §1

[30] = biological target: T30, TGFBR2 (Homo sapiens, UniProt P37173)
T30 construct: purchased Reaction Biology Corp
Protocol: as §1

[31] = biological target: T31, PAK5 (Homo sapiens, UniProt Q9P286)
T31 construct: purchased Reaction Biology Corp
Protocol: as §1

[32] = biological target: T32, PAK3 (Homo sapiens, UniProt O75914)
T32 construct: purchased Reaction Biology Corp
Protocol: as §1

[33] = biological target: T33, MST2/STK3 (Homo sapiens, UniProt Q13188)
T33 construct: purchased Reaction Biology Corp
Protocol: as §1

[34] = biological target: T34, AKT3 (Homo sapiens, UniProt Q9Y243)
T34 construct: purchased Reaction Biology Corp
Protocol: as §1

[35] = biological target: T35, CDK2/cyclin E2 (Homo sapiens, UniProt P24941)
T35 construct: purchased Reaction Biology Corp
Protocol: as §1

[36] = biological target: T36, JAK3 (Homo sapiens, UniProt P52333)
T36 construct: purchased Reaction Biology Corp
Protocol: as §1

[37] = biological target: T37, GCK/MAP4K2 (Homo sapiens, UniProt Q12851)
T37 construct: purchased Reaction Biology Corp
Protocol: as §1

[38] = biological target: T38, TYK2 (Homo sapiens, UniProt P29597)
T38 construct: purchased Reaction Biology Corp
Protocol: as §1

[39] = biological target: T39, ROCK2 (Homo sapiens, UniProt O75116)
T39 construct: purchased Reaction Biology Corp
Protocol: as §1

[40] = biological target: T40, CDK5/p35 (Homo sapiens, UniProt Q00535)
T40 construct: purchased Reaction Biology Corp
Protocol: as §1

[41] = biological target: T41, LIMK2 (Homo sapiens, UniProt P53671)
T41 construct: purchased Reaction Biology Corp
Protocol: as §1

[42] = biological target: T42, NEK6 (Homo sapiens, UniProt Q9HC98)
T42 construct: purchased Reaction Biology Corp
Protocol: as §1

[43] = biological target: T43, SIK1 (Homo sapiens, UniProt P57059)
T43 construct: purchased Reaction Biology Corp
Protocol: as §1

T43 sequence (P57059 whole entry): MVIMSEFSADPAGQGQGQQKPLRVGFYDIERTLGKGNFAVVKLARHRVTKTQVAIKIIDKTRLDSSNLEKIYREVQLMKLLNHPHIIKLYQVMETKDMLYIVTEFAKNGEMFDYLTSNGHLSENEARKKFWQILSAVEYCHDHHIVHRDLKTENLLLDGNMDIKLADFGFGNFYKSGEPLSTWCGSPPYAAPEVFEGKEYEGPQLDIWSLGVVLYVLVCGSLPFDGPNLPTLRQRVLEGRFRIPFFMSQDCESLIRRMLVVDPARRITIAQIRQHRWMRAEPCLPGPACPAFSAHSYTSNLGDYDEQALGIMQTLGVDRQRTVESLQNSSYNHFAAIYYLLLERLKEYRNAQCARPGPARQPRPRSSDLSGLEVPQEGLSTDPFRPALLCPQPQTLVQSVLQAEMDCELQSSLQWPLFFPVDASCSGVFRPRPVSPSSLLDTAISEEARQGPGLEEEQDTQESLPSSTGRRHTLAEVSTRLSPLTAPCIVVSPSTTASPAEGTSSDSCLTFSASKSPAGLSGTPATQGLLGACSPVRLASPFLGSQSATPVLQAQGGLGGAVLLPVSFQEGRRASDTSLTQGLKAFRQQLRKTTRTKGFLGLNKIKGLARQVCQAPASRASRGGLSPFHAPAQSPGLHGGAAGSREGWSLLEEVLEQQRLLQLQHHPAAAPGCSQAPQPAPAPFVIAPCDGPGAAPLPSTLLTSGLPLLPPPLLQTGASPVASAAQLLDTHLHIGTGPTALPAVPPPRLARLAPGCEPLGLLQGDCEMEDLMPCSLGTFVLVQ
T33 sequence (Q13188 whole entry): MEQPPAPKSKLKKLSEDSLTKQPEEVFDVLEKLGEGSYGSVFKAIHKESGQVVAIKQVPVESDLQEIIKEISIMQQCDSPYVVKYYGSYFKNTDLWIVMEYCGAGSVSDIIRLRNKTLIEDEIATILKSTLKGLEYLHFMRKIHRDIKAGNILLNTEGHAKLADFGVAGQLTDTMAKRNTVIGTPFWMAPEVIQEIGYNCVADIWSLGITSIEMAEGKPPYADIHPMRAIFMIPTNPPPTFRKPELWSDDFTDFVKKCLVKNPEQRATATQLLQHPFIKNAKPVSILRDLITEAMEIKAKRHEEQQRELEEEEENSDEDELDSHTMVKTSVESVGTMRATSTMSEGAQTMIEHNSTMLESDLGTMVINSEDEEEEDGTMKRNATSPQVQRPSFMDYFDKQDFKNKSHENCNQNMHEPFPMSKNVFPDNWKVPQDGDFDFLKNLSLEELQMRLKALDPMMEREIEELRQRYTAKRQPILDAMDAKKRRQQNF
T2 sequence (O60674 whole entry): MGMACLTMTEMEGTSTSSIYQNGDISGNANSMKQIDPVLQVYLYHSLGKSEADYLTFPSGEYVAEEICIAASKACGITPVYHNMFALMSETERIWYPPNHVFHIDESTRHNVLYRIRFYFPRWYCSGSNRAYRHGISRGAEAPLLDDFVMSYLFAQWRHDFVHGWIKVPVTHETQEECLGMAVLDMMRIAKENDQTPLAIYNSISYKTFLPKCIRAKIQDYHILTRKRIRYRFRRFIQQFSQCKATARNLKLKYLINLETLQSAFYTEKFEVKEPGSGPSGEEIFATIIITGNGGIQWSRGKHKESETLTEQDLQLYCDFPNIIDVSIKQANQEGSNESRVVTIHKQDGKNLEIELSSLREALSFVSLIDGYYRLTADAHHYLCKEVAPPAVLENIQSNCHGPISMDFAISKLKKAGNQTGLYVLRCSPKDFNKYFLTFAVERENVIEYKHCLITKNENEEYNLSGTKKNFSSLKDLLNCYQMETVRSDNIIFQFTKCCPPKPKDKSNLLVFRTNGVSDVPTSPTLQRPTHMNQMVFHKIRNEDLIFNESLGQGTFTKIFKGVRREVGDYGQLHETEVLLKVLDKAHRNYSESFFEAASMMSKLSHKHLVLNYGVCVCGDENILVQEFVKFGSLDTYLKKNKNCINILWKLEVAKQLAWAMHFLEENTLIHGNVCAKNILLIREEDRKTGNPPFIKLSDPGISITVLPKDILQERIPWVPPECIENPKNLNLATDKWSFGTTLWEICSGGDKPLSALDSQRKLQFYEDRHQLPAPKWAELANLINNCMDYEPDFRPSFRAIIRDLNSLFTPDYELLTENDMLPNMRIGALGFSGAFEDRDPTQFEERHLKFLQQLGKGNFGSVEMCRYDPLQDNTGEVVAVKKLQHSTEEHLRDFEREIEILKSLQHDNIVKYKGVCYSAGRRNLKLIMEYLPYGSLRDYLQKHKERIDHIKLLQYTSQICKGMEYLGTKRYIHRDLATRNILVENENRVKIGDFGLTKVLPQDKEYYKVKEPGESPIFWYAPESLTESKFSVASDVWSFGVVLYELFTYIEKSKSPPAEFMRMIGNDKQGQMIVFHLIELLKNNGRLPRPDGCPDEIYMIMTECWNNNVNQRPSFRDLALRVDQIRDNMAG
T11 sequence (Q15303 26-1308): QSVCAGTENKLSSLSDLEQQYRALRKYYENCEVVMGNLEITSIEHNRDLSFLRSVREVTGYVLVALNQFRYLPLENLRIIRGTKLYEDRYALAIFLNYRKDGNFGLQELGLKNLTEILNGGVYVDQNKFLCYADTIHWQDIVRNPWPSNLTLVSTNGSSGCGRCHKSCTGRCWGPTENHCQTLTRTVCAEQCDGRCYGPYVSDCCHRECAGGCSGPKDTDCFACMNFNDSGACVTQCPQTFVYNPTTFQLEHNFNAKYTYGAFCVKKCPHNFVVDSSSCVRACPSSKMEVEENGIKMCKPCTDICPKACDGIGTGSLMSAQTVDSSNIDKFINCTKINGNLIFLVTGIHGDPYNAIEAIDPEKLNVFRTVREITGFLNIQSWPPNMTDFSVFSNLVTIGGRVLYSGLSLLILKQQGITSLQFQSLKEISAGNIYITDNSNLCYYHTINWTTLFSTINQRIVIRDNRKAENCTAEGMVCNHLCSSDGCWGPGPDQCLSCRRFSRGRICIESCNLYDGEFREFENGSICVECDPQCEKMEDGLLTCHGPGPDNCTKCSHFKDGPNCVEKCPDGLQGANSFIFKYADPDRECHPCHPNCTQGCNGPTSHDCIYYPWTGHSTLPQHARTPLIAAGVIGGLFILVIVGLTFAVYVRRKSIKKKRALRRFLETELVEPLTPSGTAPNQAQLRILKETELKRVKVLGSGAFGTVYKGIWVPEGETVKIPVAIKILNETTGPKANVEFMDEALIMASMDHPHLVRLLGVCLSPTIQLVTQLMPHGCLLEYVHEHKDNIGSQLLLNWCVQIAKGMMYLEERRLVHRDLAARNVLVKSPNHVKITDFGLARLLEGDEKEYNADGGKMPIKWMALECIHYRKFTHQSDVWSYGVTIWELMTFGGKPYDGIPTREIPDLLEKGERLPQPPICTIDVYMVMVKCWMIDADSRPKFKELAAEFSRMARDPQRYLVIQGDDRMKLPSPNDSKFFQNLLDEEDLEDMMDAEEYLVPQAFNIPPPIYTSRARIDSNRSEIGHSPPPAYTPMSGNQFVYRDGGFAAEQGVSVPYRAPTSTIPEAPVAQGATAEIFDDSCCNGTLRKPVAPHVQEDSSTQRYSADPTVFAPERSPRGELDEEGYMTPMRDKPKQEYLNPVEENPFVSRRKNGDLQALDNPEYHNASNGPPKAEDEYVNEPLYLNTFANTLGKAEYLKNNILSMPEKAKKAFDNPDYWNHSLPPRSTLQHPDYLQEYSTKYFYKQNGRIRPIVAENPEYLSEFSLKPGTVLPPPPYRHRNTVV
T28 sequence (Q9UKI8 whole entry): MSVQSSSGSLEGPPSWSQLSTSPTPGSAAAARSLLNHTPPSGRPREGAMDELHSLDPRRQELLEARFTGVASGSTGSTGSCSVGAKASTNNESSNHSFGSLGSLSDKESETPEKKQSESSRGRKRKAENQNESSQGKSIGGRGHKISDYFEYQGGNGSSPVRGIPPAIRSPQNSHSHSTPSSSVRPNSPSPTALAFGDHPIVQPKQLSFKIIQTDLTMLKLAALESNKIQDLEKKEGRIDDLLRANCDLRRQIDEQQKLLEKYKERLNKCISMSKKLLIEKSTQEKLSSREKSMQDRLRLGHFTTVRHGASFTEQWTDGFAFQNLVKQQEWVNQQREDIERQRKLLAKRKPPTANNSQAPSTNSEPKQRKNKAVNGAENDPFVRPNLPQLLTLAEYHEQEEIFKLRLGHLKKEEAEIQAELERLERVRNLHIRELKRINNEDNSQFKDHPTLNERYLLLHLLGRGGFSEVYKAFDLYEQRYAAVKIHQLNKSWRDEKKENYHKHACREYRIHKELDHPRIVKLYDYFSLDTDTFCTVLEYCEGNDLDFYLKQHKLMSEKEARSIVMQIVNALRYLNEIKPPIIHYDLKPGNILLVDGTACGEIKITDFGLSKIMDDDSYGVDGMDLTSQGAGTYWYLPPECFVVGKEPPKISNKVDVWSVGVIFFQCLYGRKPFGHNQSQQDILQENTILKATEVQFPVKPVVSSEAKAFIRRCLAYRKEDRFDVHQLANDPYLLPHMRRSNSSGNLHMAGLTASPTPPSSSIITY
T24 sequence (P34947 whole entry): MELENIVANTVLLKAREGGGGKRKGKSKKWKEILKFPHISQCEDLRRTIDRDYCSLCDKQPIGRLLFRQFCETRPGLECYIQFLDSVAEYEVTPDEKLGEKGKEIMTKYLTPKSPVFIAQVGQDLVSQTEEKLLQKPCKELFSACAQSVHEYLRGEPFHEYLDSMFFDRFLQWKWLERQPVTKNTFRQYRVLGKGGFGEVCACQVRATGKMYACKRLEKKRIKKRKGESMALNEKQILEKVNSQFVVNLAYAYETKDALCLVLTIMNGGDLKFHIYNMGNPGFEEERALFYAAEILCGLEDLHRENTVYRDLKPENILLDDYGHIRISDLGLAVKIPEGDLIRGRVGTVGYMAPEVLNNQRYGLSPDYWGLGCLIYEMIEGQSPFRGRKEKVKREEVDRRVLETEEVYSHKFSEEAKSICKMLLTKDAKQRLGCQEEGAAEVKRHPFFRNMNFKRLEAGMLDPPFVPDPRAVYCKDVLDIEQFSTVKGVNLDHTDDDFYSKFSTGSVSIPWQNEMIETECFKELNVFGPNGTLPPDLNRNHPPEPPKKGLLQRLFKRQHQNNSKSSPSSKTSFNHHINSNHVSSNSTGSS

Cc1ccc(Nc2ncc3c(n2)N(C)C(=O)N(c2cc(C(=O)N[C@H](C(=O)N4CCC[C@H]4C(=O)NC(C)(C)C(=O)N[C@@H](CC(C)C)C(=O)N(C)C)C(C)C)ccc2C)C3)cn1 [7a, (S)-N-(1-(((S)-1-(dimethylamino)-4-methyl-1-oxopentan-2-yl)amino)-2-methyl-1-oxopropan-2-yl)-1-((4-methyl-3-(1-methyl-7-((6-methylpyridin-3-yl)amino)-2-oxo-1,4-dihydropyrimido[4,5-d]pyrimidin-3(2H)-yl)benzoyl)-L-valyl)pyrrolidine-2-carboxamide] (X1-VP[Aib]L-NMe2)
inhibition at 1 µM [1]: 10% | inhibition at 1 µM [2]: 11% | inhibition at 1 µM [3]: 0% | inhibition at 1 µM [4]: 0% | inhibition at 1 µM [5]: 4% | inhibition at 1 µM [6]: 0% | inhibition at 1 µM [7]: 7% | inhibition at 1 µM [8]: 0% | inhibition at 1 µM [9]: 8% | inhibition at 1 µM [10]: 0% | inhibition at 1 µM [11]: 53% | inhibition at 1 µM [12]: 0% | inhibition at 1 µM [13]: 21% | inhibition at 1 µM [14]: 0% | inhibition at 1 µM [15]: 0% | inhibition at 1 µM [16]: 2% | inhibition at 1 µM [17]: 2% | inhibition at 1 µM [18]: 1% | inhibition at 1 µM [19]: 0% | inhibition at 1 µM [20]: 4% | inhibition at 1 µM [21]: 0% | inhibition at 1 µM [22]: 7% | inhibition at 1 µM [23]: 5% | inhibition at 1 µM [24]: 1% | inhibition at 1 µM [25]: 0% | inhibition at 1 µM [26]: 2% | inhibition at 1 µM [27]: 1% | inhibition at 1 µM [28]: 0% | inhibition at 1 µM [29]: 29% | inhibition at 1 µM [30]: 0% | inhibition at 1 µM [31]: 9% | inhibition at 1 µM [32]: 0% | inhibition at 1 µM [33]: 7% | inhibition at 1 µM [34]: 10% | inhibition at 1 µM [35]: 0% | inhibition at 1 µM [36]: 0% | inhibition at 1 µM [37]: 13% | inhibition at 1 µM [38]: 1% | inhibition at 1 µM [39]: 10% | inhibition at 1 µM [40]: 6% | inhibition at 1 µM [41]: 12% | inhibition at 1 µM [42]: 0% | inhibition at 1 µM [43]: 10%
